Test system: calcium influx in Jurkat T-cells
Assay: Calcium imaging assay: store-depletion induced calcium influx in Jurkat T-cells
Assay type: cell-based, human
Conditions: thapsigargin then 2 mM Ca2+; clofazimine preincubated 5 min
Procedure: JurkaT-cells were attached to L-lysine-coated glass dishes (MatTek). Cells were loaded with fura-2-AM (Invitrogen_F-1201) for 45 min before they were washed sequentially with growth medium and Ca^2+-free HBSS. Fluorescence excitation wavelengths were set at 350 and 380 nm, respectively, on a Zeiss Axiovert 200M microscope while emission wavelength was set at 510 nm. Changes in intracellular calcium concentrations were determined by fluorescence intensity ratio ([…]/F380).

SMILES	effect on calcium entry
Clc1ccc(COC(Cn2ccnc2)c2ccc(Cl)cc2Cl)cc1 (centres unmarked) [econazole]	abrogated calcium entry
[Gd] [gadolinium]	abrogated calcium entry
